Reference: patent US20150231198A1 (priority 2014, published 2015)

Tests used:
SUP-T1 cells = assay: Flow cytometry apoptosis (Annexin V-FITC/PI), SUP-T1; assay type: cell-based; details: 48 hours
[1] = in vivo; cited from earlier work
Karpas 299 = assay: cells; assay type: cell-based; details: Homo sapiens, KARPAS-299, 48 h, read-out: IC50 (concentration that inhibits viability by 50%)
[2] = after intravenous infusion; cited from earlier work
[3] = tested on: Primary GFP+ cells from the Itk-Syk transgenic mouse model; assay: Apoptosis and synergy in primary GFP+ cells from Itk-Syk transgenic mouse; assay type: cell-based; details: 48 hours
[4] = tested on: protein, primarily albumin; details: cited from earlier work
[5] = water; cited from earlier work
Sup-T1 = assay: cells; assay type: cell-based; details: Homo sapiens, SUP-T1, 48 h, read-out: IC50 (concentration that inhibits viability by 50%)
Jurkat = assay: cells; assay type: cell-based; details: Homo sapiens, 48 h, read-out: IC50 (concentration that inhibits viability by 50%)
HH = assay: cells; assay type: cell-based
HD-MAR2 = assay: cells; assay type: cell-based; details: 48 h, read-out: IC50 (concentration that inhibits viability by 50%)
Karpas 299 cell line = assay: Flow cytometry apoptosis (Annexin V-FITC/PI), Karpas 299; assay type: cell-based

SMILES | apoptosis induced, % cells (SUP-T1 cells; SUP-T1, bendamustine alone) [%] | incidence of hair loss (alopecia) [1] | IC50 (Karpas 299) [nM] | half-life (first phase of biphasic elimination) [2] [min] | terminal half-life [2] | apoptosis induced, % of the cells ([3]; bendamustine alone) [%] | drug bound to protein [4] | solubility [5] | IC50 (Sup-T1) [nM] | IC50 (Jurkat) [nM] | growth inhibition (sensitivity of cell line) (HH; concentrations as high as 30 μM, 48 hours of exposure) | IC50 (HD-MAR2) [nM] | apoptotic cells (Karpas 299 cell line; Karpas 299, bendamustine at 10 μM (IC50-60)) [%] | apoptosis induced, % cells (SUP-T1 cells; SUP-T1, romidepsin alone) [%] | apoptosis induced, % of the cells ([3]; romidepsin alone) [%] | IC50 (HH; Homo sapiens, 48 h, read-out: IC50 (concentration that inhibits viability by 50%)) [nM] | apoptosis induced, % of the cell population (Karpas 299 cell line; Karpas 299, romidepsin alone at 1 nM)
Cn1c(CCCC(=O)O)nc2cc(N(CCCl)CCCl)ccc21 [bendamustine] | 50 | low incidence | 32000 | 6 to 10 | approximately 30 minutes | 72 | More than 95% | water soluble | 8880 | 17800 | resistant | 9330 | 35 |  |  |  | 
C/C=C1\NC(=O)[C@H]2CSSCC/C=C/[C@H](CC(=O)N[C@H](C(C)C)C(=O)N2)OC(=O)[C@H](C(C)C)NC1=O [romidepsin, (1S,4S,7Z,10S,16E,21R)-7-ethyl idene-4,21-bis(1-methylethyl)-2-oxa-12,13-dithia-5,8,20,23-tetrazabicyclo[8.7.6]tricos-16-ene-3,6,9,19,22-pentone] |  |  | 0.56 |  |  |  |  |  | 0.94 | 0.46 |  | 0.33 |  | 31 | 60 | 1.68 | up to 40%
